Test results: patent US20040167092A1, “Medicaments” (priority 2001, published 2004)

Experiments:
Assay type in all cases: in vivo
radiation-induced emesis = test: Radiation-induced (X-irradiation) emesis in the conscious ferret; conditions: for anti-emetic effect with DPCPX, animals affected (in words): two animals; for effect on radiation-induced emesis (in words): s.c. immediately after X-irradiation, conscious ferret
Text: The effects of a number of A1 agonists (including N-(3-fluoro4-hydroxy-phenyl)-5′-O-methyl-adenosine and N-(4-hydroxy-phenyl)-5′-O-methyl-adenosine) and an antagonist, 1,3-dipropyl-8-cyclopentylxanthine (DPCPX), were investigated for anti-emetic action against radiaton-induced emesis in the conscious ferret. In addition DPCPX was used in an attempt to block the anti- emetic effects of the partial agonist, N-(3-fluoro-4hydroxy-phenyl)-5′-O-methyl-adenosine, the structure of which is indicated below. [drawing 4]
For all the experiments. adult male ferrets, body weight range 1-1.5 kg, were used. Emesis was induced by X-irradiation, morphine and cisplatin.
The ferrets were weighed on the day before the experiment. On the day of the experiment each ferret received 2Gy (200 Rad) whole body X-irradiation, administered over a 5 minute period. The A1 receptor agonists, partial agonists or antagonist were administered via the subcutaneous route immediatelv after X-irradiation (i.e. approximately 25 minutes before the onset of emesis). When investigating the effects of the A1 receptor antagonist, DPCPX, on the partial agonist N-(3-fluoro4-hydroxy-phenyl)-5′-O-methyl-adenosine, either both compounds were administered simultaneously immediately after X-irradiation, or the DPCPX was given as a 15 minute pre-treatment.

morphine-induced emesis = test: Morphine-induced emesis in the conscious ferret; conditions: morphine 0.5 mg kg-1 s.c., 1 mg kg-1 s.c. 15 minutes before morphine, n=2
cisplatin-induced emesis = test: Cisplatin-induced emesis in the conscious ferret; conditions: cisplatin 200 mg m-2 i.p., 1 mg kg-1 s.c. after first emetic episode, n=2
Experimental: For all the experiments. adult male ferrets, body weight range 1-1.5 kg, were used. Emesis was induced by X-irradiation, morphine and cisplatin. The ferrets were weighted and measured for the calculation of body surface area on the day before the experiment. On the day of the experiment each ferret received an intraperitoneal dose of cisplatin (200 mg m^−2).

Row | SMILES | % inhibition of retching (radiation-induced emesis; 2Gy whole body X-irradiation, 1.0 mg kg-1 s.c. immediately after irradiation, observed 2 hours, n=2) [%] | anti-emetic effect with DPCPX, animals affected (in words) (radiation-induced emesis; DPCPX 3 mg kg-1 s.c., 15 minute pre-treatment) | anti-emetic effect with DPCPX, animals affected (in words) (radiation-induced emesis; DPCPX 1 mgkg-1 s.c. administered simultaneously) | reversal of the anti-emetic effect by the A1 receptor antagonist DPCPX (in words) (radiation-induced emesis; X-irradiation, addition of DPCPX) | effect on radiation-induced emesis (in words) (radiation-induced emesis) | % inhibition of retching (morphine-induced emesis; 1h) [%] | % inhibition of retching (morphine-induced emesis; 2h) [%] | % inhibition of retching (cisplatin-induced emesis; 1h) [%] | % inhibition of retching (cisplatin-induced emesis; 2h) [%] | % inhibition of retching (cisplatin-induced emesis; 7h) [%]
1 | COC[C@H]1O[C@@H](n2cnc3c(Nc4ccc(O)c(F)c4)ncnc32)[C@H](O)[C@@H]1O [N-(3-fluoro-4-hydroxyphenyl)-5′-O-methyl-adenosine] | 100 | anti-emetic effect in both animals was reduced | anti-emetic effect in only one of the two animals tested was reduced | partially reversed | completely inhibited emesis | 100 | 100 | 100 | 67 | 43
2 | COC[C@H]1O[C@@H](n2cnc3c(Nc4ccc(O)cc4)ncnc32)[C@H](O)[C@@H]1O [N-(4-hydroxyphenyl)-5′-O-methyl-adenosine] | – | – | – | – | completely inhibited emesis | – | – | – | – | –
